# Values of other authors as cited in patent publication US11191734B2, “Ketamine transdermal delivery system” (SHENOX PHARMACEUTICALS, LLC, priority 2015, dated 2021).
# Legend:
# [1] = in vivo
# [2] = not given; remark: listed apart in the source
# NMDA receptor = conditions: in vitro
# [3] = three-compartment model, 70-kg human
compound,measurement,setting,value
CNC1(c2ccccc2Cl)CCCCC1=O (racemic) [ketamine],absolute oral bioavailability,in humans,10-20%
same,half-life,in vivo,about 2 hours
same,systemic (primarily hepatic) clearance,in vivo,about 19 ml/min·kg
same,V1,[3],133 L
same,clearance,[3],79.8 L/h
same,micro constant k12,[3],0.174 h⁻¹
same,micro constant k13,[3],1.18 h⁻¹
same,micro constant k21,[3],0.124 h⁻¹
same,micro constant k31,[3],1.59 h⁻¹
same,onset of antidepressant effect after administration,[1],≤ 2 h
CN[C@@]1(c2ccccc2Cl)CCCCC1=O [R-ketamine],antidepressant effectiveness,[2]; animal model studies,more effective as an antidepressant than S-ketamine
same,psychotomimetic side effects and abuse liability,[2]; in vivo,free of psychotomimetic side effects and abuse liability
CN[C@]1(c2ccccc2Cl)CCCCC1=O [S-ketamine],affinity on NMDA receptor binding relative to R-ketamine,NMDA receptor,~4 fold
